From PMC8839658, “Design and Activity of Novel Oxadiazole Based Compounds That Target Poly(ADP-ribose) Polymerase” (Molecules, 2022)
Read-outs that look alike come from different tables or passages of the source.

Columns and labels:
[1] = test system: MCF-7 cells; experiment: Foci formation assay, MCF-7 cells; assay type: cell-based, human; conditions: MCF-7, crystal violet
Protocol: (§1) MCF-7 and MDA-MB-231 cells were plated in six-well plates in 2 mL media with or without compounds and cultured. When foci had formed, MCF-7 and MDA-MB-231 cells were washed with PBS and fixed with ice-cold methanol for 10 min at 4°C. Methanol was removed and crystal violet solution was used to stain foci at room temperature for 10 min. The resultant solution was removed; immobilized MCF-7 and MDA-MB-231 cells were rinsed with distilled water and dried at room temperature.
(§2) Figure 5 Compounds 5u, 5s, and Olaparib inhibited the foci formation of MCF-7 (left panel of A) and MDA-MB-231 (left panel of B) cells. Visualization of foci formed was achieved by use of Crystal Violet. Inhibition of foci formation was also quantified (right panels of both A,B) The data are expressed as mean ± SEM. * p ≤ 0.05; ** p ≤ 0.01; *** p ≤ 0.001.

[2] = test system: MDA-MB-231 cells; experiment: Western blot, p-H2AX (Ser139) in MDA-MB-231 cells; assay type: cell-based, human; conditions: MDA-MB-231, 1 or 10 µM, 60 h
Protocol: (§3) Western blot analysis was performed to determine the levels of PARP1 cleavage and p-H2AX in MCF-7 and MDA-MB-231 cells using previously reported methods. Cells at 50–60% confluence were treated with compounds and incubated for 60 h in 2% FBS. MCF-7 and MDA-MB-231 cells were also treated with Olaparib, 5u, or 5s and the levels of cleaved PARP1 and p-H2A-X were determined using the respective antibodies.
(§4) Figure 4 The effect of compounds 5u, 5s, and Olaparib on PARP1 cleavage (upper panel of A,B) phosphorylation of H2A-X (Ser139) (lower panel of A,B), and CASPASE-3 activity (C,D) in MCF-7 and MDA-MB-231 cells. Cancer cells were treated with or without compounds 5u, 5s,and Olaparib (1 or 10 µM). The protein levels after treatment were observed by western blot analysis. GAPDH was used as input control. The data are expressed as mean ± SEM. ** p ≤ 0.01; *** p ≤ 0.001.

[3] = test system: MCF-7 cells; experiment: MCF-7 cell viability assay (Alamar Blue); assay type: cell-based, human
Protocol: (§5) Initially, the newly synthesized oxadiazoles were examined in cell viability studies in human breast cancer (MCF-7) cells using Alamar Blue assays.
(§6) MCF-7 and MDA-MB-231 (2000) cells were cultured in MEM or Leibovitz’s L-15 medium enriched with 2% FBS and maintained in a humidified atmosphere of 5% CO2 at 37 °C [44]. DMSO dissolved compounds were kept as a stock solution, and diluted with a cell culture medium to the desired concentration. Cancer cells (4 × 10^3) were grown overnight in 96-well plates, cultured, and treated with oxadiazoles or Olaparib at 0, 0.01, 0.1, 10, 100, and 1000 µM concentrations for 72 h. The inhibitory effect of the compounds was assessed using Alamar Blue reagent.
(§7) MCF-7 and MDA-MB-231 were treated with 5u, 5s and Olaparib (0, 0.01, 0.1, 1, 10, 100 µM) for 72 h, respectively. The viability of MCF-7 (A) and MDA-MB-231 cells (B) were analyzed using a microplate reader to measure the fluorescence of Alamar Blue reagent (excitation wavelength is between 530–560 nm and emission wavelength is 590 nm). The results are means of triplicate determinations.

[4] = test system: MDA-MB-231 cells; experiment: MDA-MB-231 cell viability assay (Alamar Blue); assay type: cell-based, human; conditions: MDA-MB-231, 72 h
Protocol: as §5, §6, §7

[5] = test system: MDA-MB-231 cells; experiment: Western blot, PARP1 cleavage in MDA-MB-231 cells; assay type: cell-based, human; conditions: MDA-MB-231, 1 or 10 µM, 60 h
Protocol: as §3, §4

[6] = test system: MCF-7 cells; experiment: Western blot, PARP1 cleavage in MCF-7 cells; assay type: cell-based, human; conditions: MCF-7, 1 or 10 µM, 60 h
Protocol: as §3, §4

[7] = test system: MCF-7 cells; experiment: Western blot, p-H2AX (Ser139) in MCF-7 cells; assay type: cell-based, human; conditions: MCF-7, 1 or 10 µM, 60 h
Protocol: as §3, §4

[8] = test system: MCF-7 cells; experiment: 3D Matrigel growth, MCF-7 cells; assay type: cell-based, human; conditions: MCF-7, 4% Matrigel, 1 or 10 µM, Alamar Blue
Protocol: (§8) Cells were grown in a medium containing 4% Matrigel. Cells were treated with vehicles or compounds 5s, 5u, or Olaprib (1 or 10 µM), after colonies had formed. Compounds were added into the culture medium every 3 days for a total of 2 cycles. Alamar Blue assay was used for quantification of live cells. The data are expressed as mean ± SEM. * p ≤ 0.05; ** p ≤ 0.01; *** p ≤ 0.001.

[9] = test system: MDA-MB-231 cells; experiment: 3D Matrigel growth, MDA-MB-231 cells; assay type: cell-based, human; conditions: MDA-MB-231, 4% Matrigel, 1 or 10 µM, Alamar Blue
Protocol: as §8

[10] = test system: MDA-MB-231 cells; experiment: Foci formation assay, MDA-MB-231 cells; assay type: cell-based, human; conditions: MDA-MB-231, crystal violet
Protocol: as §1, §2

[11] = molecular target: T1, recombinant human PARP enzyme (PARP1) (Homo sapiens, UniProt P09874); experiment: PARP activity, PARP/Apoptosis Universal Colorimetric Assay Kit; assay type: biochemical; conditions: n = 3
T1 construct: purchased R&D Systems Ltd., Abingdon, UK 4677-096-K
T1 sequence (P09874 whole entry): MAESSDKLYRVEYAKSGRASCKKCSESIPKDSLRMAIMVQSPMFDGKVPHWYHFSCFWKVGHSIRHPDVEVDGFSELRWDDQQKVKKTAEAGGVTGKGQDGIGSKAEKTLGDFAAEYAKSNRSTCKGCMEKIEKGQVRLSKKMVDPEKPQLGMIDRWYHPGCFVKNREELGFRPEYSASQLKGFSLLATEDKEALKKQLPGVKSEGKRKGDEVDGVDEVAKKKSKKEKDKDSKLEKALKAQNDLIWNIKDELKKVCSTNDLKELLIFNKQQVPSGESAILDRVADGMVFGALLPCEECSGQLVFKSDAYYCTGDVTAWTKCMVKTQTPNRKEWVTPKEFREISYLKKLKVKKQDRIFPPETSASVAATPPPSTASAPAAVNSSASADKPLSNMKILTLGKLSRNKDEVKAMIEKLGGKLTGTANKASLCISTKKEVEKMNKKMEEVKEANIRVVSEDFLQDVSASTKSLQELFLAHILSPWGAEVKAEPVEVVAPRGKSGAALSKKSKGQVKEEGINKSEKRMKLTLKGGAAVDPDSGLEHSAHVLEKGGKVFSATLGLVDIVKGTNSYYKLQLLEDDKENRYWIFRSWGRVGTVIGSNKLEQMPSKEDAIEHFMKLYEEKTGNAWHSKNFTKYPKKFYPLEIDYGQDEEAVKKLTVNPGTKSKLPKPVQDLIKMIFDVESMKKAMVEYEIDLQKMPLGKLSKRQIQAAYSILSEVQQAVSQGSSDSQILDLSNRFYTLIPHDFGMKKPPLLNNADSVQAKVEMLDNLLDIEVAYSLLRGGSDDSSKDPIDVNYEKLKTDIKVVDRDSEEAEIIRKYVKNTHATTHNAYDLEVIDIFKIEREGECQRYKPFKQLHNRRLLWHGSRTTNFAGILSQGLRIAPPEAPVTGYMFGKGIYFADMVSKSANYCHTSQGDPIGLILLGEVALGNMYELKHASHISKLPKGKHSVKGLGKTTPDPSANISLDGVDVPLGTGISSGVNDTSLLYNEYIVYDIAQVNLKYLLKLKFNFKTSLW
Protocol: PARP activity was measured using the PARP/Apoptosis Universal Colorimetric Assay Kit (4677-096-K, R&D Systems Ltd., Abingdon, UK). The enzyme inhibition assay uses the histone proteins immobilized 96-well plate, which measures the incorporation of ADP-ribose (biotin-tagged), followed by detection using streptavidin-conjugated horse-radish peroxidase, and finally the color development after the addition of substrate. Oxadiazoles were incubated with the recombinant human PARP enzyme prior to detection.

[12] = test system: PARP1; conditions: read-out: cellular EC50; cited from earlier work
[13] = test system: PARP1; conditions: read-out: IC50, PARP1 activity; cited from earlier work
[14] = molecular target: autophagy activating kinase 1 (ULK1); design: method as in PMID 32967366; conditions: cited from earlier work
[15] = Homo sapiens, MCF7, 72 h, MCF-7, 72 h, Alamar Blue, Figure 2A, read-out: Log IC50, MCF-7 (converted)
[16] = Homo sapiens, MCF7, 72 h, MCF-7, 72 h, Alamar Blue, read-out: IC50, cell viability of MCF-7 cells
[17] = MCF-7, 72 h, Alamar Blue, read-out: IC50, cell viability of MCF-7 cells
[18] = Homo sapiens, Alamar Blue, Figure 2B, read-out: Log IC50, MDA-MB-231 (converted)
[19] = Homo sapiens, Alamar Blue, read-out: IC50, cell viability of MDA-MB-231 cells
[20] = Alamar Blue, read-out: IC50, cell viability of MDA-MB-231 cells

SMILES | foci formation [1] | level of p-H2AX [2] | PARP1 cleavage [5] | PARP1 cleavage [6] | level of p-H2AX [7] | 3D growth in Matrigel [8] | 3D growth in Matrigel [9] | foci formation [10] | inhibition at 0.01 µM [11] [%] | inhibition at 0.1 µM [11] [%] | inhibition at 1 µM [11] [%] | inhibition at 10 µM [11] [%] | inhibition at 100 µM [11] [%] | IC50 [3, 15] [µM] | IC50 [3, 16] [µM] | IC50 [3, 17] [µM] | IC50 [4, 18] [µM] | IC50 [4, 19] [µM] | IC50 [4, 20] [µM] | other results
O=C(c1cc(Cc2n[nH]c(=O)c3ccccc23)ccc1F)N1CCN(C(=O)C2CC2)CC1 [Olaparib, reference compound] | decreased in a dose-dependent manner | equivalent increases in the level of p-H2AX | Equivalent levels of cleaved PARP1 | Equivalent levels of cleaved PARP1 | equivalent increases in the level of p-H2AX | inhibited the growth | inhibited the growth | decreased in a dose-dependent manner |  |  |  |  |  |  |  |  |  |  |  | IC50 ([3]; Homo sapiens, MCF7, 72 h, read-out: Log IC50, MCF-7, MCF-7, 72 h, Alamar Blue (converted), Figure 2A): 3.31 µM; IC50 ([3]; read-out: IC50, cell viability of MCF-7 cells, MCF-7, 72 h, Alamar Blue): 3.2 µM; IC50 ([4]; Homo sapiens, read-out: IC50, cell viability of MDA-MB-231 cells): 70.2 µM; IC50 ([4]; Homo sapiens, read-out: IC50, cell viability of MDA-MB-231 cells, MDA-MB-231, 72 h, Alamar Blue): 70.2 µM; IC50 ([4]; Homo sapiens, read-out: Log IC50, MDA-MB-231 (converted)): 70.8 µM
COc1ccc(Cc2nnc(-c3cccc(-c4ccnc(F)c4C)c3)o2)cc1OC [compound 5s, 2-(3,4-Dimethoxybenzyl)-5-(3-(2-fluoro-3-methylpyridin-4-yl)phenyl)-1,3,4-oxadiazole] | decreased in a dose-dependent manner | equivalent increases in the level of p-H2AX | Equivalent levels of cleaved PARP1 | Equivalent levels of cleaved PARP1 | equivalent increases in the level of p-H2AX | roughly equivalent efficacy to Olaparib | roughly equivalent efficacy to Olaparib | decreased in a dose-dependent manner | 2.38 | 10.6 | 21.3 | 65 | 76.5 | 15.5 | 15.3 | 15.3 | 19.1 | 19.2 | 19.2 | 
NC(=O)c1cccc2[nH]c(-c3ccc(-c4nnco4)cc3)nc12 [compound 1] |  |  |  |  |  |  |  |  |  |  |  |  |  |  |  |  |  |  |  | EC50 [12]: 0.0037 µM; IC50 [13]: 0.001 µM
COc1ccc(Cc2nnc(-c3cccc(-c4cccc(C=O)c4)c3)o2)cc1 [compound 5u, 3′-(5-(4-Methoxybenzyl)-1,3,4-oxadiazol-2-yl)-[1,1′-biphenyl]-3-carbaldehyde] | decreased in a dose-dependent manner | equivalent increases in the level of p-H2AX | Equivalent levels of cleaved PARP1 | Equivalent levels of cleaved PARP1 | equivalent increases in the level of p-H2AX | roughly equivalent efficacy to Olaparib | roughly equivalent efficacy to Olaparib | decreased in a dose-dependent manner | 4.82 | 6.84 | 45.4 | 54.2 | 82.2 | 1.45 | 1.45 | 1.4 | 29.5 | 29.3 | 29.3 | 
FC(F)(F)c1cnc(Nc2ccc3c(c2)OCCO3)nc1NC1CC1 [compound 2] |  |  |  |  |  |  |  |  |  |  |  |  |  |  |  |  |  |  |  | IC50 [14]: 0.014 µM
